Assay results published in PubChem BioAssay (NCI).
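Assay format: 96-well plates, 48-hour exposure. At the TGI there is no net growth.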

Assays:
Assay in all cases: growth of human tumour cells (NCI), 48 h
SN12C renal = system: SN12C renal
SK-MEL-2 melanoma = system: SK-MEL-2 melanoma
HT29 colon = system: HT29 colon
T-47D breast = system: T-47D breast
SK-MEL-28 melanoma = system: SK-MEL-28 melanoma
A498 renal = system: A498 renal
786-0 renal = system: 786-0 renal
SK-MEL-5 melanoma = system: SK-MEL-5 melanoma
SNB-19 CNS = system: SNB-19 CNS
K-562 leukemia = system: K-562 leukemia
CCRF-CEM leukemia = system: CCRF-CEM leukemia
CAKI-1 renal = system: CAKI-1 renal
RPMI-8226 leukemia = system: RPMI-8226 leukemia
EKVX NSCLC = system: EKVX NSCLC
NCI/ADR-RES ovarian = system: NCI/ADR-RES ovarian
HCC-2998 colon = system: HCC-2998 colon
NCI-H522 lung = system: NCI-H522 lung
HOP-62 NSCLC = system: HOP-62 NSCLC
UACC-257 melanoma = system: UACC-257 melanoma

CC(C)(Oc1ccc(Cl)cc1)C(=O)N(C(=O)N1CCCCC1)c1ccccc1
TGI (SN12C renal): 47 µM | TGI (SK-MEL-2 melanoma): 32 µM | TGI (HT29 colon): 66.1 µM | TGI (T-47D breast): 9.68 µM | TGI (SK-MEL-28 melanoma): 44.6 µM | TGI (A498 renal): 32.8 µM | TGI (786-0 renal): 27.6 µM | TGI (SK-MEL-5 melanoma): 24.2 µM | TGI (SNB-19 CNS): 42.5 µM | TGI (K-562 leukemia): > 100 µM | TGI (CCRF-CEM leukemia): > 100 µM | TGI (CAKI-1 renal): 29.9 µM | TGI (RPMI-8226 leukemia): > 100 µM | TGI (EKVX NSCLC): 21.9 µM | TGI (NCI/ADR-RES ovarian): 37.4 µM

CCOc1cn(C2OC(CO)C(O)C2O)c(=O)[nH]c1=O (stereo not drawn)
TGI (SN12C renal): > 100 µM | TGI (SK-MEL-2 melanoma): > 100 µM | TGI (HCC-2998 colon): > 100 µM | TGI (HT29 colon): > 100 µM | TGI (NCI-H522 lung): > 100 µM | TGI (HOP-62 NSCLC): > 100 µM | TGI (SK-MEL-28 melanoma): > 100 µM | TGI (A498 renal): > 100 µM | TGI (786-0 renal): > 100 µM | TGI (SK-MEL-5 melanoma): > 100 µM | TGI (SNB-19 CNS): > 100 µM | TGI (K-562 leukemia): > 100 µM | TGI (CCRF-CEM leukemia): > 100 µM | TGI (CAKI-1 renal): > 100 µM | TGI (RPMI-8226 leukemia): > 100 µM | TGI (UACC-257 melanoma): > 100 µM | TGI (EKVX NSCLC): > 100 µM

O=C1Cc2nc(CO)c(CO)c(CO)c2CO1
TGI (SN12C renal): > 100 µM | TGI (SK-MEL-2 melanoma): > 100 µM | TGI (HCC-2998 colon): > 100 µM | TGI (HT29 colon): > 100 µM | TGI (NCI-H522 lung): > 100 µM | TGI (HOP-62 NSCLC): > 100 µM | TGI (SK-MEL-28 melanoma): > 100 µM | TGI (A498 renal): > 100 µM | TGI (786-0 renal): > 100 µM | TGI (SK-MEL-5 melanoma): > 100 µM | TGI (SNB-19 CNS): > 100 µM | TGI (K-562 leukemia): > 100 µM | TGI (CCRF-CEM leukemia): > 100 µM | TGI (CAKI-1 renal): > 100 µM | TGI (RPMI-8226 leukemia): > 100 µM | TGI (UACC-257 melanoma): > 100 µM | TGI (EKVX NSCLC): > 100 µM

CSc1ccc2c(cc1=O)[C@@H](NC(=O)c1ccc(Cl)cc1)CCc1cc(O)c(O)c(O)c1-2
TGI (SN12C renal): 75.8 µM | TGI (SK-MEL-2 melanoma): > 100 µM | TGI (HCC-2998 colon): > 100 µM | TGI (HT29 colon): > 100 µM | TGI (NCI-H522 lung): 52.1 µM | TGI (HOP-62 NSCLC): > 100 µM | TGI (SK-MEL-28 melanoma): > 100 µM | TGI (A498 renal): > 100 µM | TGI (786-0 renal): > 100 µM | TGI (SK-MEL-5 melanoma): > 100 µM | TGI (SNB-19 CNS): > 100 µM | TGI (K-562 leukemia): 68.3 µM | TGI (CCRF-CEM leukemia): > 100 µM | TGI (CAKI-1 renal): > 100 µM | TGI (RPMI-8226 leukemia): 91.5 µM | TGI (UACC-257 melanoma): > 100 µM | TGI (EKVX NSCLC): > 100 µM

COC1(C)C(=O)N2C1N(C(=O)OC(C)(C)C)CC2(C)C (stereo not drawn)
TGI (SN12C renal): > 100 µM | TGI (SK-MEL-2 melanoma): > 100 µM | TGI (HCC-2998 colon): > 100 µM | TGI (HT29 colon): > 100 µM | TGI (NCI-H522 lung): > 100 µM | TGI (HOP-62 NSCLC): > 100 µM | TGI (SK-MEL-28 melanoma): > 100 µM | TGI (A498 renal): > 100 µM | TGI (786-0 renal): > 100 µM | TGI (SK-MEL-5 melanoma): > 100 µM | TGI (SNB-19 CNS): > 100 µM | TGI (K-562 leukemia): > 100 µM | TGI (CCRF-CEM leukemia): > 100 µM | TGI (CAKI-1 renal): > 100 µM | TGI (RPMI-8226 leukemia): > 100 µM | TGI (UACC-257 melanoma): > 100 µM | TGI (EKVX NSCLC): > 100 µM
